Test results taken from US10588317B2, “Isoxazoline-substituted benzamides and analogues as insecticides” (priority 2015, dated 2020).

Key:
Assay type in all cases: in vivo
[1] = tested on: Spodoptera littoralis; assay: Spodoptera littoralis (Egyptian cotton leaf worm), uptake by lettuce roots from agar; details: 144 h, read-out: effect in at least one of the three categories (mortality, anti-feeding, or growth inhibition)
Description: Test compounds were applied by pipette from 10'000 ppm DMSO stock solutions into 24-well plates and mixed with agar. Lettuce seeds were placed onto the agar and the multi well plate was closed by another plate which contained also agar. After 7 days the compound was absorbed by the roots and the lettuce grew into the lid plate. The lettuce leaves were then cut off into the lid plate. Spodoptera eggs were pipetted through a plastic stencil onto a humid gel blotting paper and the lid plate was closed with it. The samples were assessed for mortality, anti-feedant effect and growth inhibition in comparison to untreated samples 6 days after infestation.
The following compounds gave an effect of at least 80% in at least one of the three categories (mortality, anti-feeding, or growth inhibition) at a test rate of 12.5 ppm: […]

[2] = tested on: Myzus persicae; assay: Myzus persicae (green peach aphid): feeding/contact activity; details: 144 h, application rate 200 ppm, aphid population of mixed ages, 6 days after infestation, read-out: mortality
Description: Sunflower leaf discs were placed onto agar in a 24-well microtiter plate and sprayed with aqueous test solutions prepared from 10'000 ppm DMSO stock solutions. After drying, the leaf discs were infested with an aphid population of mixed ages. The samples were assessed for mortality 6 days after infestation.

[3] = tested on: Diabrotica balteata; assay: Diabrotica balteata (corn root worm), sprayed maize sprouts; details: 96 h, application rate 200 ppm, L2 larvae, 4 days after infestation, read-out: effect in at least one of the two categories (mortality or growth inhibition)
Outline: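 Read-out at 4 days post-infestation: mortality and growth inhibition relative to untreated samples. Test solutions (200 ppm, from DMSO stocks) were sprayed onto agar-held maize sprouts, which after drying received 6–10 L2 larvae per well.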

[4] = tested on: Tetranychus urticae; assay: Tetranychus urticae (two-spotted spider mite): feeding/contact activity; details: 192 h, application rate 200 ppm, mixed population (mobile stages), 8 days after infestation, read-out: mortality
Description: Bean leaf discs on agar in 24-well microtiter plates were sprayed with aqueous test solutions prepared from 10'000 ppm DMSO stock solutions. After drying the leaf discs were infested with a mite population of mixed ages. The samples were assessed for mortality on mixed population (mobile stages) 8 days after infestation.

[5] = tested on: Plutella xylostella; assay: Plutella xylostella (diamond back moth), artificial diet; details: 120 h, application rate 200 ppm, L2 larvae, 5 days after infestation, read-out: effect in at least one of the two categories (mortality or growth inhibition)
Outline: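 L2 larvae (10-15 per well) fed on compound-treated, dried artificial diet; test solutions diluted in water from 10'000 ppm DMSO stocks. Readout 5 days post-infestation as mortality or growth inhibition versus untreated diet, with at least 80% effect at 200 ppm as threshold.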

[6] = tested on: Thrips tabaci; assay: Thrips tabaci (onion thrips): feeding/contact activity; details: 144 h, application rate 200 ppm, Thrips population of mixed ages, 6 days after infestation, read-out: mortality
Description: Sunflower leaf discs were placed on agar in 24-well microtiter plates and sprayed with aqueous test solutions prepared from 10'000 ppm DMSO stock solutions. After drying the leaf discs were infested with a Thrips population of mixed ages. The samples were assessed for mortality 6 days after infestation.

[7] = tested on: Spodoptera littoralis; assay: Spodoptera littoralis (Egyptian cotton leaf worm), sprayed cotton leaf discs; details: foliar, 72 h, application rate 200 ppm, L1 larvae, 3 days after infestation, read-out: control (mortality, anti-feeding effect, growth inhibition)
Outline: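 Five first-instar larvae placed on dried cotton leaf discs (on agar) previously sprayed with aqueous dilutions of 10'000 ppm DMSO stocks. Scored at 3 days against untreated discs for mortality, feeding inhibition and growth inhibition; any category above untreated counts as control.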

[8] = tested on: Euschistus heros; assay: Euschistus heros (neotropical brown stink bug), sprayed soybean leaves; details: 120 h, application rate 200 ppm, N2 nymphs, 5 days after infestation, read-out: effect in at least one of the two categories (mortality or growth inhibition)
Outline: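 Scored 5 days post-infestation versus untreated controls, for both mortality and growth inhibition: N2 nymphs placed on agar-mounted soybean leaves previously sprayed at 200 ppm with aqueous test solutions from DMSO stocks and left to dry.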

CN(C)S(=O)(=O)N1CC(NC(=O)c2ccc(C3=NO[C@@](c4cc(Cl)c(Cl)c(Cl)c4)(C(F)(F)F)C3)cc2Cl)CO1 (stereo partly drawn) [Compound A32, 2-chloro-N-[2-(dimethylsulfamoyl)isoxazolidin-4-yl]-4-[(5S)-5-(3,4,5-trichlorophenyl)-5-(trifluoromethyl)-4H-isoxazol-3-yl]benzamide]
≥ 80%: percent control (mortality, anti-feedant effect or growth inhibition) at 12.5 ppm [1] | mortality at 200 ppm [2] | percent effect (mortality or growth inhibition) at 200 ppm [3] | mortality at 200 ppm [4] | percent effect (mortality or growth inhibition) at 200 ppm [5] | mortality at 200 ppm [6] | mortality at 200 ppm [7]

CS(=O)(=O)N1CC(NC(=O)c2ccc(C3=NOC(c4cc(Cl)cc(Cl)c4)(C(F)(F)F)C3)cc2Br)CO1 (stereo not drawn) [Compound A48]
≥ 80%: percent control (mortality, anti-feedant effect or growth inhibition) at 12.5 ppm [1] | percent effect (mortality or growth inhibition) at 200 ppm [8] | percent effect (mortality or growth inhibition) at 200 ppm [3] | mortality at 200 ppm [4] | percent effect (mortality or growth inhibition) at 200 ppm [5] | mortality at 200 ppm [6] | mortality at 200 ppm [7]

CCS(=O)(=O)N1CC(NC(=O)c2ccc(C3=NO[C@@](c4cc(Cl)c(F)c(Cl)c4)(C(F)(F)F)C3)cc2Cl)CO1 (stereo partly drawn) [Compound A25, 2-chloro-4-[(5S)-5-(3,5-dichloro-4-fluoro-phenyl)-5-(trifluoromethyl)-4H-isoxazol-3-yl]-N-(2-ethylsulfonylisoxazolidin-4-yl)benzamide]
≥ 80%: percent control (mortality, anti-feedant effect or growth inhibition) at 12.5 ppm [1] | mortality at 200 ppm [2] | percent effect (mortality or growth inhibition) at 200 ppm [3] | mortality at 200 ppm [4] | percent effect (mortality or growth inhibition) at 200 ppm [5] | mortality at 200 ppm [6] | mortality at 200 ppm [7]

CCS(=O)(=O)N1CC(NC(=O)c2ccc(C3=NO[C@@](c4cc(Cl)c(Cl)c(Cl)c4)(C(F)(F)F)C3)cc2Cl)CO1 (stereo partly drawn) [Compound A28, 2-chloro-N-(2-ethylsulfonylisoxazolidin-4-yl)-4-[(5S)-5-(3,4,5-trichlorophenyl)-5-(trifluoromethyl)-4H-isoxazol-3-yl]benzamide]
≥ 80%: percent control (mortality, anti-feedant effect or growth inhibition) at 12.5 ppm [1] | mortality at 200 ppm [2] | percent effect (mortality or growth inhibition) at 200 ppm [3] | mortality at 200 ppm [4] | percent effect (mortality or growth inhibition) at 200 ppm [5] | mortality at 200 ppm [6] | mortality at 200 ppm [7]

Cc1cc(C2=NO[C@@](c3cc(Cl)c(F)c(Cl)c3)(C(F)(F)F)C2)ccc1C(=O)NC1CON(S(C)(=O)=O)C1 (stereo partly drawn) [Compound A1, 4-[(5S)-5-(3,5-dichloro-4-fluoro-phenyl)-5-(trifluoromethyl)-4H-isoxazol-3-yl]-2-methyl-N-(2-methylsulfonylisoxazolidin-4-yl)benzamide]
≥ 80%: percent control (mortality, anti-feedant effect or growth inhibition) at 12.5 ppm [1] | mortality at 200 ppm [2] | percent effect (mortality or growth inhibition) at 200 ppm [3] | mortality at 200 ppm [4] | percent effect (mortality or growth inhibition) at 200 ppm [5] | mortality at 200 ppm [6] | mortality at 200 ppm [7]

Cc1cc(C2=NOC(c3cc(Cl)cc(Cl)c3)(C(F)(F)F)C2)ncc1C(=O)NC1CON(S(C)(=O)=O)C1 (stereo not drawn) [Compound A236]
≥ 80%: percent control (mortality, anti-feedant effect or growth inhibition) at 12.5 ppm [1] | percent effect (mortality or growth inhibition) at 200 ppm [8] | percent effect (mortality or growth inhibition) at 200 ppm [3] | mortality at 200 ppm [4] | percent effect (mortality or growth inhibition) at 200 ppm [5] | mortality at 200 ppm [6] | mortality at 200 ppm [7]

Cc1cc(C2=NOC(c3cc(C(F)(F)F)c(Cl)c(C(F)(F)F)c3)(C(F)(F)F)C2)ccc1C(=O)NC1CON(S(C)(=O)=O)C1 (stereo not drawn) [Compound A57]
≥ 80%: percent control (mortality, anti-feedant effect or growth inhibition) at 12.5 ppm [1] | percent effect (mortality or growth inhibition) at 200 ppm [8] | percent effect (mortality or growth inhibition) at 200 ppm [3] | mortality at 200 ppm [4] | percent effect (mortality or growth inhibition) at 200 ppm [5] | mortality at 200 ppm [6] | mortality at 200 ppm [7]

CS(=O)(=O)N1CC(NC(=O)c2ccc(C3=NOC(c4cc(Cl)cc(Cl)c4)(C(F)(F)F)C3)cc2C2CC2)CO1 (stereo not drawn) [Compound A52]
≥ 80%: percent control (mortality, anti-feedant effect or growth inhibition) at 12.5 ppm [1] | percent effect (mortality or growth inhibition) at 200 ppm [8] | percent effect (mortality or growth inhibition) at 200 ppm [3] | mortality at 200 ppm [4] | percent effect (mortality or growth inhibition) at 200 ppm [5] | mortality at 200 ppm [6] | mortality at 200 ppm [7]

Cc1cc(C2=NO[C@@](c3cc(Cl)c(F)c(Cl)c3)(C(F)(F)F)C2)ccc1C(=O)NC1CON(S(=O)(=O)CC(F)(F)F)C1 (stereo partly drawn) [Compound A8]
≥ 80%: percent control (mortality, anti-feedant effect or growth inhibition) at 12.5 ppm [1] | percent effect (mortality or growth inhibition) at 200 ppm [8] | percent effect (mortality or growth inhibition) at 200 ppm [3] | mortality at 200 ppm [4] | percent effect (mortality or growth inhibition) at 200 ppm [5] | mortality at 200 ppm [6] | mortality at 200 ppm [7]

CCS(=O)(=O)N1C[C@@H](NC(=O)c2ccc(C3=NO[C@@](c4cccc(C(F)(F)F)c4)(C(F)(F)F)C3)cc2C)CO1 [Compound A160]
≥ 80%: percent effect (mortality, anti-feeding or growth inhibition) at 12.5 ppm ([1]; test rate 12.5 ppm, eggs, 6 days after infestation) | percent effect (mortality or growth inhibition) at 200 ppm [8] | percent effect (mortality or growth inhibition) at 200 ppm [3] | mortality at 200 ppm [4] | percent effect (mortality or growth inhibition) at 200 ppm [5] | mortality at 200 ppm [6] | mortality at 200 ppm [7]

Cc1cc(C2=NO[C@@](c3cc(Cl)c(F)c(Cl)c3)(C(F)(F)F)C2)ccc1C(=O)N[C@H]1CON(S(=O)(=O)N(C)CC(F)(F)F)C1 [Compound A150, 4-[(5S)-5-(3,5-dichloro-4-fluoro-phenyl)-5-(trifluoromethyl)-4H-isoxazol-3-yl]-2-methyl-N-[(4R)-2-[methyl(2,2,2-trifluoroethyl)sulfamoyl]isoxazolidin-4-yl]benzamide]
≥ 80%: percent effect (mortality or growth inhibition) at 200 ppm [8] | mortality at 200 ppm [2] | percent effect (mortality or growth inhibition) at 200 ppm [3] | mortality at 200 ppm [4] | percent effect (mortality or growth inhibition) at 200 ppm [5] | mortality at 200 ppm [6] | mortality at 200 ppm [7]

Cc1cc(C2=NO[C@@](c3cccc(C(F)(F)F)n3)(C(F)(F)F)C2)ccc1C(=O)N[C@H]1CON(S(C)(=O)=O)C1 [Compound A215]
≥ 80%: percent effect (mortality or growth inhibition) at 200 ppm [8] | mortality at 200 ppm [2] | percent effect (mortality or growth inhibition) at 200 ppm [3] | mortality at 200 ppm [4] | percent effect (mortality or growth inhibition) at 200 ppm [5] | mortality at 200 ppm [6] | mortality at 200 ppm [7]
